This is an account of results in patent US11001745B2, “Hydrocarbon recovery composition, method, and system” (THE SASKATCHEWAN RESEARCH COUNCIL, priority 2016, dated 2021).

A short description of data set [1]: Dissolution of asphaltenes. It counts as physicochemical.
Another data set is described as follows: Thermal stability. It counts as physicochemical. The note with it: 200° C.
The conditions of data set [2]: room temperature; cited from earlier work.

As for `O=C1CCCN1C1CCCCC1` [NCHP, N-cyclohexyl-2-pyrrolidone], the “Asphaltenes dissolve in the compound” value in data set [1] is “dissolve”.
For `CCCCCCCCN1CCCC1=O` [NOP, N-octyl-2-pyrrolidone], the Thermal stability result in “Thermal stability” was “stable for at least one week”. Further, the “Asphaltenes dissolve in the compound” value in data set [1] was “dissolve”. The Solubility in water result in data set [2] is on record as “about 1 g/L”.
For the compound `CCCCCCCCCCCCN1CCCC1=O` [NDDP, N-dodecyl-2-pyrrolidone], the “Asphaltenes dissolve in the compound” value in data set [1] is “dissolve”.
